From PMC9918900, “New Succinimide–Thiazolidinedione Hybrids as Multitarget Antidiabetic Agents: Design, Synthesis, Bioevaluation, and Molecular Modelling Studies” (Molecules, 2023) come the findings set out here.

The subject of test [1] is streptozotocin-induced diabetic rats. Briefly: liver and renal serum biomarkers. The settings on record: 0.5 mg/kg, 28th day. It is filed as in vivo, Wistar rats. How it is done: (§1) Non-insulin-dependent diabetes mellitus was induced in fasted rats weighing 150–230 gm using a single dose of streptozotocin (STZ) at a dose of 60 mg/kg intraperitoneally after 15 min of the administration of nicotinamide at a 120 mg/kg dose i.p. Nicotinamide was prepared in normal saline while in citrate buffer (pH 4.5), STZ was prepared. After the induction of diabetes, the increase in the plasma glucose level was measured at 72 h and then measured on the 7th day to confirm hyperglycemia. For the diagnosis of diabetes, the threshold value of the fasting plasma glucose level was considered to be more than 126 mg/dl. For the study, only the animals with permanent NIIDM were utilized.
(§2) The animals were classified into 5 groups with 6 animals in each group (n = 6). Group I comprised of normal control rats which were daily administered drinking water only; group II served as diabetic control rats (disease group); group III served as the positive control and were administered 0.5 mg/kg of the standard drug glibenclamide; and group IV and V served as the test group rats and were administered the test compound 10d at 10 mg/kg and 20 mg/kg, respectively, for twenty-eight days. The fasting glucose concentration was measured on the 0, 7th, 14th, and 28th day of the administration of the extract. During the experimental tenure, the weights of the rats were determined daily and the mean change was recorded.
(§3) The animals were euthanized (sacrificed) via cervical dislocation on the 28th day to observe the biochemical parameters. The parameters studied were triglyceride (TGL), cholesterol, low-density lipoprotein, and high-density lipoprotein (LDL and HDL). The Minias Globe Diagnostic kits were used for cholesterol and TGL. Semi-autoanalyzers were used for the analysis. The serum samples from the rats were also checked for alanine aminotransferase (ALT), aspartate aminotransferase (AST), lactate dehydrogenase (LDH), serum alkaline phosphatase (ALP), and creatinine and urea levels utilizing commercially available kits of Crest Biosystems. The statistical analysis was also performed as per the previous procedure.

Test [2] has the same test system. Briefly: effect on body weight. The class given is in vivo, Wistar rats. Conditions: glibenclamide group, 0.5 mg/kg. How it is done:
(§4) The antidiabetic activity of the synthesized compound 10d was evaluated using a streptozotocin-induced diabetic rats model.
(§5) Male Wistar rats weighing 150 to 230 gm were used for the study which were housed in polyacrylic cages (no more than six animals per cage) with dimensions of 38 × 23 × 10 cm and maintained under standard laboratory conditions with a dark/light cycle of 14 h of dark and 10 h of light at a temperature of 25 °C. The animals were provided with a standard diet (dry pellet) and water ad libitum. Before the start of the experimental procedures, the rats were acclimatized to laboratory conditions for 10 days. All the experiments were approved and performed as per the guidelines of the Departmental Research Ethics Committee under letter No. DREC/050 [49].
as §1, §2

Test [3] shares this test system. Briefly: in vivo antidiabetic activity, fasting plasma glucose level. Details: species or system Wistar rats. Conditions: STZ-induced diabetic rats, 0.5 mg/kg, 28th day. The method, then: as §4, §5, §1
The animals were classified into 5 groups with 6 animals in each group (n = 6). […] The fasting glucose concentration was measured on the 0, 7th, 14th, and 28th day of the administration of the extract. During the experimental tenure, the weights of the rats were determined daily and the mean change was recorded.

The test system is the same in test [4]. Briefly: effect on serum lipid profile of diabetic animals. It is filed as in vivo, Wistar rats. The settings on record: compared to diabetic control group. How it is done: as §4, §5, §1, §2, §3

Consider `COc1ccc(Cl)cc1C(=O)NCCc1ccc(S(=O)(=O)NC(=O)NC2CCCCC2)cc1` [Glibenclamide, glibenclamide, reference compound], for which, in test [1], the ALP turned out to be 124.42 ± 2.35 U/L, the ALT is reported as 76.23 ± 2.13 U/L, the AST turned out to be 80.36 ± 2.12 U/L and the Creatinine is 0.44 ± 0.04 ^ns mg/dl. In test [1], the LDH worked out at 826.21 ± 5.60 U/L and the Urea was determined as 42.45 ± 2.21 mg/dL. Further, in test [2], the “Change in Body Weight, After Induction” value is 160.52 ± 2.23 gm and the “Change in Body Weight, Before Induction” value is 180.66 ± 1.67 ^ns gm. Also, in test [2] (28 days), the “Change in Body Weight, After Treatment” value is on record as 176.90 ± 4.45 gm. For the same compound, in test [3], the blood glucose level is 72.44 ± 3.58 mg/dL. Besides, in test [4], the HDL level entry is “greater than before”, the LDL in serum entry is “significant decline”, the “total cholesterol level in serum” value is “significant decline” and the triglyceride in serum result is on record as “significant decline”.
